Assay results taken from US9597336B2, “Therapy for treatment of chronic degenerative brain diseases and nervous system injury” (THE REGENTS OF THE UNIVERSITY OF CALIFORNIA, priority 2004, dated 2017).
“Also recorded” adds a separate entry of the source.

Experiments:
Niemann Pick type-C mice [1] = test: Allopregnanolone, T0901317 and their combination in NP-C mice: lifespan, rotorod; type: in vivo, mouse; conditions: for lifespan (mean): allopregnanolone 25 mg/kg s.c. single injection at P7, T0901317 50 mg/kg/day from day 18; for onset of symptoms: rotorod trials; for age at which loss of motor function begins: untreated begin at 35 days
Description: (§1) The materials and methods used for the following experiments have been described in Griffin L. D., et al., Nature Medicine 10: 704-711 (2004). This reference is hereby incorporated by reference in its entirety.
Mice were given a single injection of allopregnanolone, prepared in 20% β-cyclodextrin in phosphate buffered saline, at a concentration of 25 mg/kg. The injection was on day 7 of life (P7, postnatal day 7). T0901317 treatment was started on day 18 (50 mg/kg/day) in chow. Efficacy was assessed by measuring body weight, and neurological symptoms, using a rotorod test. Efficacy was further assessed by measuring lifespan.

[2] = system: cerebellar astrocytes from P3 cerebella; test: Neurotrophin secretion in cultured cerebellar astrocytes (ELISA); type: cell-based, mouse
Description: as §1
Pure cultures of cerebellar astrocytes from P3 cerebella were cultured for 1-3 days±10 nM allopregnanolone, and NGF was assayed every 24 hr by ELISA.

[3] = system: CD4+, CD8+, MAC1+ and MHCII+ cells in brain; test: Immunocytochemistry of inflammatory cells in brains of NP-C mice; type: in vivo, mouse
Description: as §1
(§2) Mice were again given a single injection of allopregnanolone, prepared in 20% β-cyclodextrin in phosphate buffered saline, at a concentration of 25 mg/kg. The injection was on day 7 of life (P7, postnatal day 7). Inflammation was measured by assessing the number of CD4^+ CD8^+, MAC1^+, and MHCII^+ cells, using immunocytochemistry. Concentrations of brain cytokines were also measured, using by enzyme linked immunoabsorbent (ELISA) assays.

[4] = system: brain cytokines (TGFβ, IL1β); test: Brain cytokine concentrations by ELISA in NP-C mice; type: in vivo, mouse; conditions: adult NP-C mice treated at day 7, vs untreated NP-C mice
Description: as §1, §2

[5] = system: gangliosides GM1, GM2, and GM3 in the brain; test: Ganglioside accumulation in brain of allopregnanolone-treated Niemann Pick type-C mice; type: in vivo, mouse
Description: as §1
Mice were given a single injection of allopregnanolone, prepared in 20% βcyclodextrin in phosphate buffered saline, at a concentration of 25 mg/kg. The injection was on day 7 of life (P7, postnatal day 7). Concentrations of gangliosides GM1, GM2, GM3, were measured as well as other lipids such as ceramides and cerebrosides.

Niemann Pick type-C mice [6] = test: Ganaxolone treatment of NP-C mice: lifespan, weight, locomotor skills; type: in vivo, mouse
Description: as §1
Mice were given a single injection of ganaxolone, prepared in 20% β-cyclodextrin in phosphate buffered saline, at a concentration of 25 mg/kg. The injection was on day 7 of life (P7, postnatal day 7).
Efficacy of treatment was assessed by measuring body weight, neurological symptoms, using behavioral tests such as wire hang test, rope climbing test, walking on an mesh inclined plane, and walking on a horizontal surface, measuring coordination, use of all 4 limbs, posture, tail placement. Efficacy was also assessed by measuring lifespan. Results of these experiments are summarized below, and are shown graphically in FIG. 7.

[7] = adult (60-day old) NP-C mice treated at P7

SMILES: O=S(=O)(c1ccccc1)N(CC(F)(F)F)c1ccc(C(O)(C(F)(F)F)C(F)(F)F)cc1 [T0901317]
- lifespan (mean) (Niemann Pick type-C mice [1]): 80 days
- course of loss of motor function / decline in symptoms (Niemann Pick type-C mice [1]; rotorod): blunted
- onset of symptoms (Niemann Pick type-C mice [1]): delayed
- age at which loss of motor function begins (Niemann Pick type-C mice [1]; rotorod): 42 days

SMILES: CC(=O)[C@H]1CC[C@H]2[C@@H]3CC[C@H]4C[C@H](O)CC[C@]4(C)[C@H]3CC[C@]12C [allopregnanolone]
- lifespan (mean) (Niemann Pick type-C mice [1]): 112 days
- onset of symptoms (Niemann Pick type-C mice [1]): delayed
- age at which loss of motor function begins (Niemann Pick type-C mice [1]; rotorod): 49 days
- production of NGF ([2]; NP-C mouse cerebellar astrocytes cultured 1-3 days with 10 nM, vs untreated control cells): increases
- concentrations of the neurotrophins NGF and BDNF ([2]; cerebellar cells in culture): increases
- apoptotic neurons in the brain ([3]; NP-C mice, 25 mg/kg single injection at P7): substantial reduction
- number of T cells and activated macrophages in brain ([3]; NP-C mice, 25 mg/kg single injection at P7, vs untreated controls): significant reduction
- increase in immunostaining for CD4 and CD8 T cells, cerebellum [3, 7]: absent
- increase in immunostaining for CD4 and CD8 T cells, thalamus/hypothalamus [3, 7]: absent
- immunostaining for MAC1 and MHC II (activated macrophages), thalamus ([3]; adult (60-day old) NP-C mice treated at day 7, vs untreated NP-C mice): substantially reduced
- brain cytokine concentrations (TGFβ and IL1β) [4]: substantial reduction; also recorded: substantially reduced
- amount of the gangliosides GM1, GM2, and GM3 in brain ([5]; NP-C mice, single injection 25 mg/kg at P7, compared with untreated controls): reduced
- degree of reduction in the gangliosides by timing of treatment ([5]; NP-C mice, treatment at postnatal day 7 compared with postnatal day 10): greater reduction
- GM1 or GM2 immunostaining, cerebellum [5, 7]: only slight immunostaining
- GM1 or GM2 immunostaining, thalamus/hypothalamus [5, 7]: only very slight immunostaining

SMILES: CC(=O)[C@H]1CC[C@H]2[C@@H]3CC[C@H]4C[C@](C)(O)CC[C@]4(C)[C@H]3CC[C@]12C [ganaxolone]
- weight loss and tremor (Niemann Pick type-C mice [6]): delays
- lifespan (average) (Niemann Pick type-C mice [6]; single injection 25 mg/kg at P7, untreated 67 (±10) days): 118 days
- duration of the loss of motor function (Niemann Pick type-C mice [6]; single injection at P7, untreated 3-4 weeks): 5 weeks
- age at which loss of motor function (locomotion and coordination) begins (Niemann Pick type-C mice [6]; single injection at P7, untreated begin at 6-7 weeks): 10 weeks
- age at which weight loss begins (Niemann Pick type-C mice [6]; single injection at P7, untreated begin at 6 weeks): 10 weeks
- rate of weight loss (Niemann Pick type-C mice [6]; single injection at P7, vs untreated NP-C mice): more slowly
